HELM strings list units from the 5' end as sugar, base in round brackets, then linkage (d deoxyribose, r ribose, m 2'-O-methyl, p phosphodiester). Strings are as the collection lists them; they lack the last nucleoside at the 3' end of the tested compound. [moe] = 2'-O-(2-methoxyethyl) (MOE); [sp] = phosphorothioate linkage; [m5C] = 5-methylcytosine

The target in the data set is UBE3A-ATS. The data set can be described thus: mouse, dose not given. The settings on record: ASO.
“RNA1{[moe](T)[sp].[moe](G)p.[moe]([m5C])p.[moe](T)p.[moe](G)p.[moe](A)p.d(T)[sp].d([m5C])[sp].d(A)[sp].d([m5C])[sp].d(A)[sp].d(T)[sp].d(T)[sp].d(A)[sp].d([m5C])[sp].d([m5C])[sp].[moe]([m5C])p.[moe](A)[sp].[moe](T)}$$$$ (last 3' nucleoside missing)” registered a 3 h FOB score of 1 score 0-7. As for “RNA1{[moe](G)[sp].[moe]([m5C])p.[moe](T)p.[moe](G)[sp].d(A)[sp].d(T)[sp].d([m5C])[sp].d(A)[sp].d([m5C])[sp].d(A)[sp].d(T)[sp].d(T)[sp].[moe](A)p.[moe]([m5C])p.[moe]([m5C])p.[moe]([m5C])[sp].[moe](A)}$$$$ (last 3' nucleoside missing)”, the figure is 0 score 0-7; as for “RNA1{[moe]([m5C])[sp].[moe](T)p.[moe](G)p.[moe]([m5C])p.[moe](T)p.d(T)[sp].d(A)[sp].d(T)[sp].d(G)[sp].d(T)[sp].d(A)[sp].d(G)[sp].d([m5C])[sp].d(T)[sp].d([m5C])[sp].[moe](A)p.[moe](G)p.[moe]([m5C])[sp].[moe](T)}$$$$ (last 3' nucleoside missing)”, 1 score 0-7. As for “RNA1{[moe](A)[sp].[moe](G)p.[moe](A)p.[moe]([m5C])p.[moe](T)p.d(A)[sp].d(T)[sp].d([m5C])[sp].d([m5C])[sp].d(T)[sp].d(G)[sp].d(G)[sp].d(T)[sp].d(A)[sp].d(T)[sp].[moe](G)p.[moe](A)p.[moe]([m5C])[sp].[moe](T)}$$$$ (last 3' nucleoside missing)”, the figure is 6 score 0-7; as for “RNA1{[moe](T)[sp].[moe](G)p.[moe](A)p.[moe](G)[sp].d([m5C])[sp].d(T)[sp].d(A)[sp].d(T)[sp].d([m5C])[sp].d(T)[sp].d(G)[sp].d(T)[sp].[moe](A)p.[moe]([m5C])p.[moe](A)p.[moe](A)[sp].[moe](A)}$$$$ (last 3' nucleoside missing)”, 3 score 0-7; as for “RNA1{[moe](A)[sp].[moe](T)p.[moe](T)p.[moe](G)p.[moe](T)p.d([m5C])[sp].d([m5C])[sp].d(T)[sp].d([m5C])[sp].d([m5C])[sp].d(T)[sp].d(G)[sp].d(G)[sp].d(T)[sp].d(A)[sp].[moe](A)p.[moe]([m5C])p.[moe]([m5C])[sp].[moe](A)}$$$$ (last 3' nucleoside missing)”, 1.2 score 0-7.

As to “RNA1{[moe](A)[sp].[moe](G)p.[moe](G)p.[moe](A)p.[moe]([m5C])p.d([m5C])[sp].d(T)[sp].d([m5C])[sp].d(A)[sp].d(G)[sp].d(G)[sp].d(A)[sp].d(G)[sp].d(A)[sp].d(T)[sp].[moe](T)p.[moe](G)p.[moe](T)[sp].[moe](A)}$$$$ (last 3' nucleoside missing)”, the 3 h FOB score worked out at 2.3 score 0-7. As to “RNA1{[moe](A)[sp].[moe](G)p.[moe](A)p.[moe](G)p.[moe](G)p.d([m5C])[sp].d([m5C])[sp].d([m5C])[sp].d(T)[sp].d([m5C])[sp].d(T)[sp].d(T)[sp].d(G)[sp].d(T)[sp].d(T)[sp].[moe](T)p.[moe]([m5C])p.[moe](A)[sp].[moe](A)}$$$$ (last 3' nucleoside missing)”, the 3 h FOB score came out at 1.8 score 0-7. “RNA1{[moe]([m5C])[sp].[moe](A)p.[moe](T)p.[moe](A)p.[moe]([m5C])[sp].d([m5C])[sp].d([m5C])[sp].d(A)[sp].d(G)[sp].d(G)[sp].d(G)[sp].d(T)[sp].d(A)[sp].[moe](G)p.[moe](G)p.[moe](A)[sp].[moe](T)}$$$$ (last 3' nucleoside missing)”: the 3 h FOB score turned out to be 1 score 0-7. As for “RNA1{[moe](G)[sp].[moe](T)p.[moe](A)p.[moe](G)p.[moe](G)p.d(A)[sp].d(G)[sp].d(A)[sp].d(T)[sp].d(A)[sp].d(G)[sp].d(G)[sp].d([m5C])[sp].d(A)[sp].d(G)[sp].[moe](T)p.[moe](G)p.[moe]([m5C])[sp].[moe](A)}$$$$ (last 3' nucleoside missing)”, the figure is 5 score 0-7; as for “RNA1{[moe](T)[sp].[moe](G)p.[moe]([m5C])p.[moe](T)p.[moe]([m5C])p.d(A)[sp].d(G)[sp].d(T)[sp].d(T)[sp].d(A)[sp].d(G)[sp].d(G)[sp].d(T)[sp].d(T)[sp].d(A)[sp].[moe](G)p.[moe](T)p.[moe](G)[sp].[moe]([m5C])}$$$$ (last 3' nucleoside missing)”, 4.3 score 0-7; as for “RNA1{[moe](T)[sp].[moe]([m5C])p.[moe](T)p.[moe](G)p.[moe]([m5C])p.[moe](T)p.d([m5C])[sp].d(A)[sp].d(G)[sp].d(T)[sp].d(T)[sp].d(A)[sp].d(G)[sp].d(G)[sp].d(T)[sp].d(T)[sp].[moe](A)p.[moe](G)[sp].[moe](T)}$$$$ (last 3' nucleoside missing)”, 4 score 0-7. As to “RNA1{[moe](G)[sp].[moe](T)p.[moe](A)p.[moe](A)p.[moe](T)p.d(G)[sp].d(A)[sp].d(T)[sp].d(T)[sp].d(T)[sp].d(G)[sp].d([m5C])[sp].d([m5C])[sp].d([m5C])[sp].d(T)[sp].[moe]([m5C])p.[moe]([m5C])p.[moe](T)[sp].[moe](A)}$$$$ (last 3' nucleoside missing)”, the 3 h FOB score is 6 score 0-7. “RNA1{[moe](T)[sp].[moe](G)p.[moe](T)p.[moe](G)p.[moe](G)p.d(G)[sp].d([m5C])[sp].d([m5C])[sp].d(T)[sp].d([m5C])[sp].d(T)[sp].d(A)[sp].d(T)[sp].d(T)[sp].d(A)[sp].[moe](A)p.[moe](G)p.[moe](A)[sp].[moe](T)}$$$$ (last 3' nucleoside missing)”: the 3 h FOB score was found to be 1 score 0-7. Substance “RNA1{[moe](G)[sp].[moe]([m5C])p.[moe](A)p.[moe](A)p.[moe](T)p.d(G)[sp].d(G)[sp].d(A)[sp].d([m5C])[sp].d(T)[sp].d(T)[sp].d(A)[sp].d(G)[sp].d(T)[sp].d(A)[sp].[moe]([m5C])p.[moe](A)p.[moe]([m5C])[sp].[moe](A)}$$$$ (last 3' nucleoside missing)” had a 3 h FOB score of 1 score 0-7. In turn, “RNA1{[moe](T)[sp].[moe](G)p.[moe]([m5C])p.[moe](T)p.[moe](G)p.d(A)[sp].d(T)[sp].d([m5C])[sp].d(A)[sp].d([m5C])[sp].d(A)[sp].d(T)[sp].d(T)[sp].d(A)[sp].d([m5C])[sp].[moe]([m5C])p.[moe]([m5C])p.[moe](A)[sp].[moe](T)}$$$$ (last 3' nucleoside missing)” came in with a 3 h FOB score of 0 score 0-7. “RNA1{[moe](G)[sp].[moe](A)p.[moe](G)p.[moe](T)p.[moe](A)p.d(T)[sp].d(A)[sp].d(T)[sp].d(T)[sp].d(A)[sp].d([m5C])[sp].d([m5C])[sp].d(T)[sp].d([m5C])[sp].d([m5C])[sp].[moe](A)p.[moe](G)p.[moe](G)[sp].[moe](T)}$$$$ (last 3' nucleoside missing)” returned a 3 h FOB score of 1 score 0-7. As to “RNA1{[moe]([m5C])[sp].[moe](T)p.[moe](T)p.[moe](G)p.[moe](A)p.d(T)[sp].d(G)[sp].d(G)[sp].d([m5C])[sp].d(T)[sp].d(G)[sp].d(T)[sp].d(A)[sp].d(G)[sp].d([m5C])[sp].[moe](T)p.[moe](T)p.[moe](G)[sp].[moe](G)}$$$$ (last 3' nucleoside missing)”, the 3 h FOB score stood at 5 score 0-7.

The values are drawn from the OligoGym collection.
